Source: patent publication US9427444B2, “Pharmaceutical and cosmetic compositions for accelerated healing of wounds and other surface damages” (MITOTECH SA, priority 2007, dated 2016)

Tests used:
[1] = tested on: human subdermal diploid fibroblasts; assay: Differentiation of human subdermal fibroblasts into myofibroblasts (cell square, unstriped muscle actin, vinculin contacts); assay type: cell-based
Description: Myofibroblasts emerge as result of normal fibroblast differentiation and in comparison to them have bigger size, better adherence to the substrate (in vivo to extracellular matrix, in vitro to plastic), different cytoskeleton structure and contractive activity.
Main myofibroblast marker is unstriped muscle actin form, which mediates its contraction activity and almost never can be found in normal fibroblasts.
Better adherence to the substrate is also a characteristic feature of myofibroblasts, it promotes its movement into wound and brace of wound edges. In our experiments we estimated number of tight contacts between cell and substrate, containing special focal adhesion protein vinculin.
It is important to notice that short incubation with SkQ1 for 1-2 hours is enough for induction of this transformation, and further a population of myofibroblasts is supported in a media without SkQ1 for at least 4-6 weeks.

LAR epithelial cell line = assay: Epithelial layer movement into the wound in vitro; assay type: cell-based
Experimental: Along with fibroblast movement and contraction, in wound healing a formation plays an important role of new epithelial layers in the wound—so called reepithalialization. Study on this process in vitro was carried out using LAR epithelial cell line. […] Ability of cell to form tight “islands” and single epithelial layer also weren't disturbed. Studies on expression of intracellular contact protein E-cadherin specific for epithelium confirmed epithelial structure stability in presence of SkQ1. […] This effect was studied in vitro using the same mode that was used in fibroblast studies. […] Unlike fibroblasts, epithelial cells moved into the wound in a single layer with all characteristic morphology and intracellular contacts.

[2] = tested on: human fibroblast monolayer; assay: Human fibroblast monolayer damage, model of wound in vitro; assay type: cell-based
Description: Human fibroblast monolayer damage—is a model of wound in vitro, as fibroblasts are basement of connective tissue, which structure falls with any injury or damage. It is known that fibroblasts are one of the first to enter wounded area that considerably determines its healing. Fibroblast monolayer was damaged with sterile scalpel; as a result a 2000 micron wide distant break appeared. Ability of fibroblasts to heal the wound was estimated by length of cell migration zone, appeared during certain time period (1 day) inside the wound. Cell migration zone length depends directly on healing speed of artificially given wound. Results of several different SkQ1 concentrations test are shown on FIG. 4.

fibroblast culture = assay: IF staining of cytoskeleton and fibronectin in fibroblast culture treated with SkQ1; assay type: cell-based, human
Description: It points to contraction activity and cell movement enhancement. […] This was done by IF staining of actin and myosin in fibroblast stress-fibrils, treated with SkQ1 and from control group.
Further on we analyzed a consistence of main extracellular matrix protein fibronectin in fibroblast culture, treated with SkQ1. […] Fibronectinic matrix forms as a result of both cell secretion and reorganization of matrix components present in culture in formation of serum. Fibronectin produced by fibroblasts has certain structural alterity that gives a possibility to construct selective antibodies.

CC1=C(C)C(=O)C(CCCCCCCCCC[P+](c2ccccc2)(c2ccccc2)c2ccccc2)=CC1=O.[Br-] [SkQ1]
incubation time enough for induction of transformation into myofibroblasts [1]: 1 to 2 h | average square value increase ([1]; SkQ1 20 nM, whole population): increases more then two-three fold | number of vinculin-containing contacts per cell ([1]; SkQ1 treated versus control cells, FIG. 3): increase of number of contacts per cell | average square of significant group of cells over control value (cell size distribution) ([1]; SkQ1 treatment, FIG. 2): 5-6 fold | unstriped muscle actin form (IF staining) in giant cells versus normal fibroblasts ([1]; after SkQ1 treatment): heavy increase | time myofibroblast population is supported in media without SkQ1 ([1]; after short incubation with SkQ1): 4-6 weeks | actinic stress-fibrils in the cells (LAR epithelial cell line): significantly raised | cell movement into the wound (LAR epithelial cell line): significantly accelerates cell movement into the wound | morphological changes of epithelial cells (LAR epithelial cell line): didn't cause significant morphological changes | persistence of effect on epithelial cells after drug withdrawal (LAR epithelial cell line): continued long after drug withdrawal | length of cell migration zone inside the wound ([2]; 1 day, 2000 micron wide break, FIG. 4): short period incubation with SkQ1 caused effect, which continued for a long time even without SkQ1 | number of cell rows entered to the wound ([2]; 24 hours, FIG. 5): Injury healing acceleration | cell skeleton reorganization, stress-fibrils (fibroblast culture; IF staining of actin and myosin): active cell skeleton reorganization with stress-fibril enhancement | fibronectin level (IF staining) (fibroblast culture; monolayer areas and cell migration zone): significant increase | intracellular expression of fibronectin (fibroblast culture; selective antibodies to fibroblast fibronectin): raises
